Article PMC7287735 (Molecules, 2020)
Read-outs that look alike come from different tables or passages of the source.

Experiments:
[1] = test system: HCoV-229E; test: Anti-coronavirus cytoprotection assay (XTT, reduction of viral cytopathic effect) in MRC-5 cells; conditions: for activity against HCoV-229E at the tested concentrations: MRC-5 cells, high test concentration 100 µM; for Therapeutic Index (TC50/EC50): MRC-5/HCoV-229E
[2] = test system: MRC-5 cells; test: Cellular toxicity to MRC-5 cells (XTT); conditions: 6 days, duplicate data points
[3] = Human coronavirus 229E, MRC5, 144 h, read-out: EC50 (effective concentration that reduced 50% of viral cytopathic effect), HCoV-229E in MRC-5 cells, 6 days, triplicate data points
[4] = listed as 5′-O-tetradecanoyl ester conjugate of FTC (9)

| SMILES | EC50 [1, 3] | TC50 (toxic concentration that killed 50% of MRC-5 cells) [2] | activity against HCoV-229E at the tested concentrations [1] | also measured |
| --- | --- | --- | --- | --- |
| CCSCCCCCCCCCCCC(=O)OC[C@H]1O[C@@H](n2cc(C)c(=O)[nH]c2=O)C[C@@H]1F [5′-O-(12-thioethydodecanoyl)FLT (5), 5′-O-(12-thioethydodecanoyl)FLT] | > 45.4 µM | 45.4 µM |  | TC50 (toxic concentration that killed 50% of MRC-5 cells) ([2]; listed as 5): 45.4 to 55.3 µM |
| CCC(CC)COC(=O)[C@H](C)N[P@](=O)(OC[C@H]1O[C@@](C#N)(c2ccc3c(N)ncnn23)[C@H](O)[C@@H]1O)Oc1ccccc1 [Remdesivir (1), Remdesivir] | 0.067 ± 0.012 µM | > 2.0 µM |  | EC50 ([1]; read-out: EC50 (effective concentration that reduced 50% of viral cytopathic effect), HCoV-229E in MRC-5 cells, 6 days, triplicate data points): 0.07 µM; TC50 (toxic concentration that killed 50% of MRC-5 cells) ([2]; listed as Remdesivir): > 2.0 µM; TC50 (toxic concentration that killed 50% of MRC-5 cells) ([2]; listed as remdesivir): > 2.00 µM; TC50 (toxic concentration that killed 50% of MRC-5 cells) ([2]; listed as remdesivir (1)): > 2 ± 0 µM |
| C[C@H](Cn1cnc2c(N)ncnc21)OCP(=O)(O)O [TFV (2), Tenofovir] | > 100 µM | > 100 µM |  |  |
| Cc1cn([C@H]2C[C@H](F)[C@@H](CO)O2)c(=O)[nH]c1=O [FLT (4), 3′-Fluoro-3′-deoxythymidine] | > 100 µM | > 100 µM | not active |  |
| C#C[C@]1(CO)O[C@@H](n2cnc3c(N)nc(F)nc32)C[C@@H]1O [EFdA (3), 4′-ethynyl-2-fluoro-2′-deoxyadenosine] | > 55.3 µM | 55.3 µM |  | TC50 (toxic concentration that killed 50% of MRC-5 cells) ([2]; listed as 3): 45.4 to 55.3 µM |
| Nc1nc(=O)n([C@H]2CS[C@@H](CO)O2)cc1F [FTC (8), 2′,3′-dideoxy-5-fluoro-3′-thiacytidine] | > 100 µM | > 100 µM | not active |  |
| Nc1ccn([C@H]2CS[C@@H](CO)O2)c(=O)n1 [3TC (6), 2′,3′-Dideoxy-3′-thiacytidine] | > 100 µM | > 100 µM | not active |  |
| CCCCCCCCCCCCCC(=O)OC[C@@H]1O[C@H](n2cc(F)c(N)nc2=O)CS1 [5′-O-(tetradecanoyl)FTC (9), 5′-O-(tetradecanoyl)FTC] | 72.8 µM | 87.5 µM |  | Therapeutic Index (TC50/EC50) [1]: 1.20; Therapeutic Index (TC50/EC50) [1, 4]: 1.2; TC50 (toxic concentration that killed 50% of MRC-5 cells) [2, 4]: 87.5 ± 1.34 µM |
| CCCCCCCCCCCCCC(=O)OC[C@@H]1O[C@H](n2ccc(N)nc2=O)CS1 [5′-O-(tetradecanoyl)3TC (7), 5′-O-(tetradecanoyl)3TC] | > 47.5 µM | 47.5 µM |  | TC50 (toxic concentration that killed 50% of MRC-5 cells) ([2]; listed as 7): 45.4 to 55.3 µM |
